Measurements reported in patent publication US9958439B2, “Carbohydrate detection” (RICHTER LIFE SCIENCE DEVELOPMENT AB, priority 2012, dated 2018).

Key:
[1] = tested on: biofilm (curli, cellulose) of S. enteritidis 3934 wt and isogenic mutants; assay: Real time tracking of biofilm formation with h-FTAA; type: cell-based, Salmonella enteritidis; details: 2 μg/ml in culture, curli Ex 405/Em 556 nm, cellulose Ex 500/Em 600 nm, hourly over 48 h
Description: A) comparison of OD600 (. . . ) against GFP signal (_) of a wt biofilm culture over 48 hours; B) correlation of OD600 against GFP signal; […].
The turbidity of a bacterial culture, measured by absorbance at OD600, is used to define culture density. Expression of GFP provides a direct representation of bacterial growth and culture density. S. enteritidis 3934 wt and isogenic mutants ΔbscA, ΔcsgA, and ΔcsgD were transformed with the plasmid P2777 which carries the gfp gene for a more direct representation of culture density through fluorescence detection. […] […]. RFU data of GFP and h-FTAA from the four plates were combined in a single plot to visualize the hourly change in signals over time.

[2] = tested on: biofilm of S. enteritidis wt strain 3934 and isogenic mutants ΔbscA, ΔcsgA, ΔcsgD; assay: LCO assay for fluorescence confocal analysis of biofilm and biofilm morphology; type: cell-based, Salmonella enteritidis
Description: Fluorescence confocal analysis (left side) and phase contrast analysis (right side) of the same slide are shown side by side.
Glass cover-slips were introduced to the wells of a 6-well plate (according to the set-up shown in FIG. 2A) to provide surfaces for biofilm formation, which at the end of experiment could be easily removed for microscope analysis. To prepare for the biofilm experiment, individual cultures of S. enteritidis wt strain 3934 and isogenic mutants ΔbscA, ΔcsgA, and ΔcsgD were grown in LB medium in flasks overnight. Each culture was diluted 100-fold in fresh LB and cultivated in a shaking incubator (230 rpm) at 37° C. to OD600=0.6. Cultures were diluted to a culture density of 10^5 CFU/ml in LB without salt and dispensed into the cover-slip containing 6 well plates in 8 ml aliquots. After incubating the plates for 48 h at 28° C., glass cover-slips were removed and washed twice with PBS before fixation in 4 ml of 4% formaldehyde for 1 h. […] PBS functioned as the negative control, used to assess the level of auto-fluorescence. Treated slides were then washed twice with PBS and mounted with Vectashield® for fluorescence-based confocal laser scanning microscopy analysis. Specifically, the edge of the biofilm formed at the liquid air interface was visualized using the appropriate fluorescence filters. […] The right side is an overlay of an optical inspection of bacterial presence by phase contrast with LCO fluorescence. Phase contrast is a traditional method for visual confirmation of biofilm attachment on surfaces.

SMILES: O=C(O)Cc1cc(-c2ccc(-c3ccc(C(=O)O)s3)s2)sc1-c1ccc(-c2sc(-c3ccc(-c4ccc(C(=O)O)s4)s3)cc2CC(=O)O)s1 [h-FTAA, hepta Formic Thiophene Acetic Acid]
- real time analysis of biofilm formation [1]: enables real time analysis of biofilm formation
- fluorescent signal from the LCO on biofilm versus phase contrast microscopy ([2]; 2 μg/ml LCO, fixed and washed cover-slip biofilm): coincides with visible bacteria aggregates
- fluorescent signal with cellulose+ curli− ΔcsgA biofilm ([2]; 2 μg/ml, ΔcsgA, confocal microscopy): gave a fluorescent signal
